Results reported in patent US20260083704A1, “LXR MODULATORS WITH BICYCLIC CORE MOIETY FOR TREATING DYSLIPIDEMIAS” (OrsoBio, Inc., priority 2022, published 2026).

Columns and labels:
LXRβ = target: T1, LXRβ (Homo sapiens, UniProt P55055); assay: LXR Gal4 reporter transient transfection assay (mammalian two-hybrid, HEK293), LXRβ; type: cell-based; parameters: LXRβ (amino acids 156-461); expressed in transfected cells; host or cells: HEK293; conditions: full length (FL) LXRβ, HEK293; read-out: FL-M2H Gal4β
T1 sequence (P55055 1-460): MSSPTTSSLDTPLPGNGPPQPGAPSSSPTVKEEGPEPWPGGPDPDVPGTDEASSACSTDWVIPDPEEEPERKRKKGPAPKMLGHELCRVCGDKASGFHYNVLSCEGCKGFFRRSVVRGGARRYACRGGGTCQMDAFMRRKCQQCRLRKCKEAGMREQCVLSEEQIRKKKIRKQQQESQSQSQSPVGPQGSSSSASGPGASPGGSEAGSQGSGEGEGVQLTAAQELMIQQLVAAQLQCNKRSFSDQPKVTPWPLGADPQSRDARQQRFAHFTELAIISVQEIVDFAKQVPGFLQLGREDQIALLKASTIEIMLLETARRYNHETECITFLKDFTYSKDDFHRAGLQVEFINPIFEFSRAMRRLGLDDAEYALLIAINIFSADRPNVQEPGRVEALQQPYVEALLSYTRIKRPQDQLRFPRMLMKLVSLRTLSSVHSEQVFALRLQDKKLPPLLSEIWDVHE
How it was run: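 HEK293 cells transiently co-transfected with full-length or LBD LXRα/LXRβ fused to NFkB activation domain, GAL4-DBD-fused SRC1 or NCoR cofactor domain, GAL4-responsive firefly luciferase reporter and Renilla control. Compound added 4 h post-transfection (≤0.2% DMSO), incubated 16 h; firefly and Renilla luminescence read sequentially.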

[1] = Short term HFD mouse model: plasma and liver exposure; type: in vivo; conditions: HFD mice, 4 h after final dose
Protocol: The in vivo transcriptional regulation of several LXR target genes by LXR modulators was assessed in mice.
For this, C57BL/6J were purchased from Elevage Janvier (Rennes, France) at the age of 8 weeks. After an acclimation period of two weeks, animals were prefed on a high fat diet (HFD) (Ssniff Spezialdiäten GmbH, Germany, Surwit EF D12330 mod, Cat. No. E15771-34), with 60 kcal % from fat plus 1% (w/w) extra cholesterol (Sigma-Aldrich, St. Louis, MO) for 5 days. Animals were maintained on this diet during treatment with LXR modulators. The test compounds were formulated in 0.5% hydroxypropylmethylcellulose (HPMC) and administered in three doses (from 1.5 to 20 mg/kg each) by oral gavage according to the following schedule: on day one, animals received treatment in the morning and the evening (ca. 17:00), on day two animals received the final treatment in the morning after a 4 h fast and were sacrificed 4 h thereafter. Animal work was conducted according to the national guidelines for animal care in Germany.
Upon termination, liver was collected, dipped in ice cold PBS for 30 seconds and cut into appropriate pieces. Pieces were snap frozen in liquid nitrogen and stored at −80° C. For the clinical chemistry analysis from plasma, alanine aminotransferase (ALT, IU/mL), cholesterol (CHOL, mg/dL) and triglycerides (TG, mg/dL) were determined using a fully-automated bench top analyzer (Respons®910, DiaSys Greiner GmbH, Flacht, Germany) with system kits provided by the manufacturer.

[2] = three oral doses of 20 mg/kg over two days
[3] = three oral doses of 10 mg/kg over two days

SMILES: Cc1ccc(S(=O)(=O)n2c(-c3cccc(-c4ccc(C(=O)O)cc4Cl)c3)c(-c3ccsc3C#N)c3cc(F)ccc32)cc1 [3/48]
- EC50 (LXRβ): < 0.1 µM
- liver exposure 4 h [1, 2]: C (1 μM to ≤10 μM)
- liver/plasma ratio 4 h [1, 2]: C (30 to ≤100)
- plasma exposure 4 h [1, 2]: D (<100 nM)

SMILES: O=C(O)c1ccc(-c2cccc(-c3c(-c4ccccc4C4COC4)c4cc(F)ccc4n3S(=O)(=O)c3ccc(C(F)F)cc3)c2)c(Cl)c1 [3/59]
- EC50 (LXRβ): < 0.1 µM
- liver exposure 4 h [1, 2]: C (1 μM to ≤10 μM)
- liver/plasma ratio 4 h [1, 2]: B (5 to ≤30)
- plasma exposure 4 h [1, 2]: C (100 nM to <300 nM)

SMILES: Cc1ccc(S(=O)(=O)n2c(-c3cccc(C45CCC(C(=O)O)(CC4)CC5)c3)c(-c3ccsc3C#N)c3cc(F)ccc32)cc1 [3/64]
- EC50 (LXRβ): < 0.1 µM
- liver exposure 4 h [1, 2]: D (>10 μM)
- liver/plasma ratio 4 h [1, 2]: D (>100)
- plasma exposure 4 h [1, 2]: C (100 nM to <300 nM)

SMILES: N#Cc1cccc(C#N)c1-c1c(-c2cccc(-c3c(F)cc(CC(=O)O)cc3F)c2)n(S(=O)(=O)c2ccc(C(F)F)cc2)c2ccc(F)cc12 [3/73]
- EC50 (LXRβ): < 0.1 µM
- liver exposure 4 h [1, 3]: B (300 nM to ≤1 μM)
- liver/plasma ratio 4 h [1, 3]: C (30 to ≤100)
- plasma exposure 4 h [1, 3]: D (<100 nM)

SMILES: Cc1ccc(S(=O)(=O)n2c(-c3cccc(-c4ccc(C(=O)O)cc4)c3)c(-c3ccsc3C#N)c3cc(F)ccc32)cc1 [5/3]
- EC50 (LXRβ): < 0.1 µM
- liver exposure 4 h [1, 2]: C (1 μM to ≤10 μM)
- liver/plasma ratio 4 h [1, 2]: B (5 to ≤30)
- plasma exposure 4 h [1, 2]: D (<100 nM)

SMILES: CC(=O)NS(=O)(=O)c1ccc(-c2cccc(-c3c(-c4c(C#N)cccc4C#N)c4cc(F)ccc4n3S(=O)(=O)c3ccc(C(F)F)cc3)c2)c(Cl)c1 [8/8]
- EC50 (LXRβ): < 0.1 µM
- liver exposure 4 h [1, 3]: B (300 nM to ≤1 μM)
- liver/plasma ratio 4 h [1, 3]: B (5 to ≤30)
- plasma exposure 4 h [1, 3]: C (100 nM to <300 nM)

SMILES: N#Cc1cccc(C#N)c1-c1c(-c2cccc(-c3ccc(C(=O)NCCS(=O)(=O)O)cc3Cl)c2)n(S(=O)(=O)c2ccc(C(F)F)cc2)c2ccc(F)cc12 [10/1]
- EC50 (LXRβ): < 0.1 µM
- liver exposure 4 h [1, 3]: B (300 nM to ≤1 μM)
- liver/plasma ratio 4 h [1, 3]: C (30 to ≤100)
- plasma exposure 4 h [1, 3]: D (<100 nM)

SMILES: CN(CCS(=O)(=O)O)C(=O)c1ccc(-c2cccc(-c3c(-c4c(C#N)cccc4C#N)c4cc(F)ccc4n3S(=O)(=O)c3ccc(C(F)F)cc3)c2)c(Cl)c1 [10/2]
- EC50 (LXRβ): < 0.1 µM
- liver exposure 4 h [1, 3]: D (>10 μM)
- liver/plasma ratio 4 h [1, 3]: B (5 to ≤30)
- plasma exposure 4 h [1, 3]: D (<100 nM)

SMILES: N#Cc1nccnc1-c1c(-c2cccc(-c3cc(F)c(C(=O)O)cc3Cl)c2)n(S(=O)(=O)c2ccc(C(F)F)cc2)c2ccc(F)cc12 [11/11]
- EC50 (LXRβ): < 0.1 µM
- liver exposure 4 h [1, 2]: D (>10 μM)
- liver/plasma ratio 4 h [1, 2]: D (>100)
- plasma exposure 4 h [1, 2]: D (<100 nM)

SMILES: N#Cc1cccc(C#N)c1-c1c(-c2cccc(-c3ccc(C(=O)O)cc3Cl)c2)n(S(=O)(=O)c2ccc(C(F)F)cc2)c2ccc(F)cc12 [11/12]
- EC50 (LXRβ): < 0.1 µM
- liver exposure 4 h [1, 2]: C (1 μM to ≤10 μM)
- liver/plasma ratio 4 h [1, 2]: C (30 to ≤100)
- plasma exposure 4 h [1, 2]: D (<100 nM)

SMILES: O=C(O)c1ccc(-c2cccc(-c3c(-c4c(Cl)cccc4Cl)c4cc(F)ccc4n3S(=O)(=O)c3ccc(C(F)F)cc3)c2)c(Cl)c1 [11/13]
- EC50 (LXRβ): < 0.1 µM
- liver exposure 4 h [1, 2]: C (1 μM to ≤10 μM)
- liver/plasma ratio 4 h [1, 2]: A (<5)
- plasma exposure 4 h [1, 2]: A (>1 μM)

SMILES: N#Cc1sccc1-c1c(-c2cccc(-c3ccc(C(=O)O)cc3Cl)c2)n(S(=O)(=O)c2ccc(C(F)(F)F)nc2)c2ccc(F)cc12 [11/16]
- EC50 (LXRβ): < 0.1 µM
- liver exposure 4 h [1, 2]: C (1 μM to ≤10 μM)
- liver/plasma ratio 4 h [1, 2]: B (5 to ≤30)
- plasma exposure 4 h [1, 2]: C (100 nM to <300 nM)

SMILES: N#Cc1sccc1-c1c(-c2cccc(-c3ccc(C(=O)O)cc3Cl)c2)n(S(=O)(=O)c2ccc(C(F)F)cc2)c2ccc(F)cc12 [11/17]
- EC50 (LXRβ): < 0.1 µM
- liver exposure 4 h [1, 2]: D (>10 μM)
- liver/plasma ratio 4 h [1, 2]: C (30 to ≤100)
- plasma exposure 4 h [1, 2]: C (100 nM to <300 nM)

SMILES: O=C(O)c1ccc(-c2cccc(-c3c(-c4ncccc4C(F)(F)F)c4cc(F)ccc4n3S(=O)(=O)c3ccc(C(F)F)cc3)c2)c(Cl)c1 [11/23]
- EC50 (LXRβ): < 0.1 µM
- liver exposure 4 h [1, 2]: C (1 μM to ≤10 μM)
- liver/plasma ratio 4 h [1, 2]: B (5 to ≤30)
- plasma exposure 4 h [1, 2]: C (100 nM to <300 nM)

SMILES: N#Cc1cccnc1-c1c(-c2cccc(-c3ccc(C(=O)O)cc3Cl)c2)n(S(=O)(=O)c2ccc(C(F)F)cc2)c2ccc(F)cc12 [11/26]
- EC50 (LXRβ): < 0.1 µM
- liver exposure 4 h [1, 3]: C (1 μM to ≤10 μM)
- liver/plasma ratio 4 h [1, 3]: C (30 to ≤100)
- plasma exposure 4 h [1, 3]: C (100 nM to <300 nM)

SMILES: COc1c(C(=O)O)ccc(-c2cccc(-c3c(-c4ccccc4C#N)c4cc(F)ccc4n3S(=O)(=O)c3ccc(C(F)F)cc3)c2)c1Cl [11/27]
- EC50 (LXRβ): < 0.1 µM
- liver exposure 4 h [1, 2]: C (1 μM to ≤10 μM)
- liver/plasma ratio 4 h [1, 2]: C (30 to ≤100)
- plasma exposure 4 h [1, 2]: D (<100 nM)

SMILES: N#Cc1ccccc1-c1c(-c2cccc(-c3ccc(C(=O)O)cc3Cl)c2)n(S(=O)(=O)c2ccc(C(F)F)cc2)c2ccc(F)cc12 [11/33]
- EC50 (LXRβ): < 0.1 µM
- liver exposure 4 h [1, 2]: C (1 μM to ≤10 μM)
- liver/plasma ratio 4 h [1, 2]: C (30 to ≤100)
- plasma exposure 4 h [1, 2]: C (100 nM to <300 nM)

SMILES: N#Cc1cccc(C#N)c1-c1c(-c2cccc(-c3ccc(C(=O)O)cc3Cl)c2)n(S(=O)(=O)c2ccc(C(F)(F)F)nc2)c2ccc(F)cc12 [11/37]
- EC50 (LXRβ): < 0.1 µM
- liver exposure 4 h [1, 3]: C (1 μM to ≤10 μM)
- liver/plasma ratio 4 h [1, 3]: C (30 to ≤100)
- plasma exposure 4 h [1, 3]: D (<100 nM)

SMILES: N#Cc1ccccc1-c1c(-c2cccc(-c3ccc(C(=O)O)cc3Cl)c2)n(S(=O)(=O)c2ccc(C(F)F)cc2)c2cnccc12 [11/49]
- EC50 (LXRβ): < 0.1 µM
- liver exposure 4 h [1, 2]: C (1 μM to ≤10 μM)
- liver/plasma ratio 4 h [1, 2]: D (>100)
- plasma exposure 4 h [1, 2]: D (<100 nM)

SMILES: N#Cc1cccc(C#N)c1-c1c(-c2cccc(-c3ccc(C(=O)O)cc3F)c2)n(S(=O)(=O)c2ccc(C(F)F)cc2)c2ccc(F)cc12 [11/51]
- EC50 (LXRβ): < 0.1 µM
- liver exposure 4 h [1, 3]: C (1 μM to ≤10 μM)
- liver/plasma ratio 4 h [1, 3]: C (30 to ≤100)
- plasma exposure 4 h [1, 3]: D (<100 nM)

SMILES: N#Cc1cccc(C#N)c1-c1c(-c2cccc(-c3c(F)cc(C(=O)O)cc3F)c2)n(S(=O)(=O)c2ccc(C(F)F)cc2)c2ccc(F)cc12 [11/53]
- EC50 (LXRβ): < 0.1 µM
- liver exposure 4 h [1, 3]: C (1 μM to ≤10 μM)
- liver/plasma ratio 4 h [1, 3]: C (30 to ≤100)
- plasma exposure 4 h [1, 3]: D (<100 nM)

SMILES: N#Cc1cccc(C#N)c1-c1c(-c2cccc([C@H]3CC[C@H](C(=O)O)CC3)c2)n(S(=O)(=O)c2ccc(C(F)F)cc2)c2ccc(F)cc12 [11/62]
- EC50 (LXRβ): < 0.1 µM
- liver exposure 4 h [1, 3]: C (1 μM to ≤10 μM)
- liver/plasma ratio 4 h [1, 3]: B (5 to ≤30)
- plasma exposure 4 h [1, 3]: C (100 nM to <300 nM)
